From paper PMC10269871, “Small Molecule Inhibition of an Exopolysaccharide Modification Enzyme is a Viable Strategy To Block Pseudomonas aeruginosa Pel Biofilm Formation” (Microbiology Spectrum, 2023) come the findings set out here.

For the test, the target named is T1, PelA (Pseudomonas aeruginosa, UniProt Q9HZE4).
T1 construct: PelAΔ46Chis6, residues 47 to 948, C-terminal His6
The experiment in a line: fluorogenic AMMU esterase assay with purified PelA, Michaelis-Menten global noncompetitive fit (IC50 […]); reversible by gel filtration. In kind it is biochemical. On the technique in general: SEC sorts molecules by how far they enter the pores of the column.

T1 sequence (Q9HZE4 entry or part of it): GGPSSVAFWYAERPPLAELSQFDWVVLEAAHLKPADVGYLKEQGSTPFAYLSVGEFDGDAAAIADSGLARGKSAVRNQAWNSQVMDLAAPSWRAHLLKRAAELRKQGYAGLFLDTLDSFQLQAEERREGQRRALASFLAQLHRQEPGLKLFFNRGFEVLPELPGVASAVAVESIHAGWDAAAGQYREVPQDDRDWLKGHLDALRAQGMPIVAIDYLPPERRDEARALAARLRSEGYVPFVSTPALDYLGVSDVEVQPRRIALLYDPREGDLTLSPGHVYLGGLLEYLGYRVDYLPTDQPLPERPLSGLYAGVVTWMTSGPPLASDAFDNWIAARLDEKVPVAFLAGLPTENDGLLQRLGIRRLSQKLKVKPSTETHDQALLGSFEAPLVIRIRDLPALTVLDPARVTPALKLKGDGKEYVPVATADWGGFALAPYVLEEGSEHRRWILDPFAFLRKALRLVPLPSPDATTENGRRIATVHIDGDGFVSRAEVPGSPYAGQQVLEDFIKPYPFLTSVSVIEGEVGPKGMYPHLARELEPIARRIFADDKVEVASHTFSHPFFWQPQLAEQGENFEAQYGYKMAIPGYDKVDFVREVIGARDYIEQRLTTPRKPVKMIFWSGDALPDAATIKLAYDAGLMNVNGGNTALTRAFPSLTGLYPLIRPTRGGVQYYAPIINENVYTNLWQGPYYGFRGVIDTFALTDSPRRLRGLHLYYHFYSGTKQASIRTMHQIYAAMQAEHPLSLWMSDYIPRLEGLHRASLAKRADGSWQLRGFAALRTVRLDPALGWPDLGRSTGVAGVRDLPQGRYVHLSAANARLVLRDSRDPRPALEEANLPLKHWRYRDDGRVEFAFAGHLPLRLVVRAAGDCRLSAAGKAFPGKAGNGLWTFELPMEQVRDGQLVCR

`CSC(=S)N/N=C/c1ccccn1` [SK-017154-O, methyl 2-(2-pyridinylmethylene) hydrazinecarbodithioate] displayed a Ki of 1130 ± 30 nM.

A word on the Ki: it is a dissociation constant, usually derived from enzyme kinetics or from competition with a known ligand. The low end stands for tighter binding, the high end for weaker binding.
